Assay results reported in publication PMC7479175, “Selection of Potent Inhibitors of Soluble Epoxide Hydrolase for Usage in Veterinary Medicine” (Frontiers in Veterinary Science, 2020).
Read-outs that look alike come from different tables or passages of the source.

Legend:
[1] = target: T1, sEH activity from liver cytosol of Pig (Sus scrofa, UniProt Q6Q2C2); experiment: sEH inhibition potency (IC50), radioactive assay with [3H]t-DPPO, liver cytosol; format: biochemical
T1 construct: The radioactive fluorescent assay was used with the liver crude extracts; from tissue; host or cells: pig liver cytosol (100,000 g supernatant)
T1 sequence (Q6Q2C2 1-555): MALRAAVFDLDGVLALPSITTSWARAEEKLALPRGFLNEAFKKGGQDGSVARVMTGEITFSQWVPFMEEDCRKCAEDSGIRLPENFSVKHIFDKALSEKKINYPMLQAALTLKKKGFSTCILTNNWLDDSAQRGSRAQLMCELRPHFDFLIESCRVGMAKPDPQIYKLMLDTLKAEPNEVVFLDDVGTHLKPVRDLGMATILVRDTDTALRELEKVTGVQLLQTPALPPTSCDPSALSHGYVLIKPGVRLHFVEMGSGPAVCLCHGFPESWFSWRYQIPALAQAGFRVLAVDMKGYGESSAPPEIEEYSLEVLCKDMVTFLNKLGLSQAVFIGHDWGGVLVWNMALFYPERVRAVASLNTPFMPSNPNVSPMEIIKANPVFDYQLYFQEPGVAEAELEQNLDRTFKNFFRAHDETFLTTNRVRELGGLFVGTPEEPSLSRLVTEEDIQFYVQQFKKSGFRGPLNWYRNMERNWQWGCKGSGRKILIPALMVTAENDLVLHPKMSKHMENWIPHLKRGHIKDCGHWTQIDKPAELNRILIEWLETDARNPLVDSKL
From the text: (§1) Fresh liver tissues samples (5–30 g) were collected promptly after death from healthy adult cat, dog and horse euthanized for reasons unrelated to this study, and whose bodies were given to science by the owners in line with federal regulations and protocol approved by the Institutional Animal Care and Use Committee at University of California Davis. Similarly, tissues from the other animals tested herein were collected from healthy animals immediately after being slaughter at the university abattoir. Because no animals were directly used or killed for this study, sample collections were exempted from approval by the Institutional Animal Care and Use Committee of the University of California Davis and Michigan State University. […] The tissues were flash-frozen in liquid nitrogen following removal, and then kept at −80°C until used. After thawing on ice, the samples were homogenized in chilled sodium phosphate buffer (20 mM pH 7.4) containing 5 mM EDTA, 1 mM DTT and 1 mM PMSF (tissue weight:buffer volume ratio 1:4). These homogenates were centrifuged at 100,000 g for 60 min at 4°C. The supernatant (the cytosolic fraction) was separated from the pellet, aliquoted and flash frozen in liquid nitrogen, then kept frozen at −80°C until usage.
(§2) The IC50 values reported herein were determined using either a fluorescent based assay (CMNPC as substrate) for purified enzyme preparations or a radioactive based assay ([^3H]t-DPPO as substrate) for crude enzyme preparations ([20]). The fluorescent assay was used with the purified proteins. […] The substrate (CMNPC) was then added ([S]final = 5 μM). […] The radioactive […] assay was used with the liver crude extracts. Extracts were incubated with inhibitors ([I]final = 1–1,000 nM) at 30° C for 5 min in sodium phosphate buffer (pH 7.4) containing 0.1 mg/mL of BSA and 1% of DMSO, prior to substrate introduction ([^3H]t-DPPO [S]final: 50 μM; ~12,000 dpm/assay). The enzymes were incubated at 30°C for 10 min, and the reaction was quenched by the addition of 60 μL methanol and 200 μL isooctane, which extracts the remaining epoxide from the aqueous phase. […] Assays were performed in triplicate.

[2] = target: T2, sEH activity from liver cytosol of Rat (Rattus norvegicus, UniProt P80299); experiment: as above; format: biochemical
T2 construct: The radioactive fluorescent assay was used with the liver crude extracts; from tissue; host or cells: rat liver cytosol (100,000 g supernatant)
T2 sequence (P80299 1-554): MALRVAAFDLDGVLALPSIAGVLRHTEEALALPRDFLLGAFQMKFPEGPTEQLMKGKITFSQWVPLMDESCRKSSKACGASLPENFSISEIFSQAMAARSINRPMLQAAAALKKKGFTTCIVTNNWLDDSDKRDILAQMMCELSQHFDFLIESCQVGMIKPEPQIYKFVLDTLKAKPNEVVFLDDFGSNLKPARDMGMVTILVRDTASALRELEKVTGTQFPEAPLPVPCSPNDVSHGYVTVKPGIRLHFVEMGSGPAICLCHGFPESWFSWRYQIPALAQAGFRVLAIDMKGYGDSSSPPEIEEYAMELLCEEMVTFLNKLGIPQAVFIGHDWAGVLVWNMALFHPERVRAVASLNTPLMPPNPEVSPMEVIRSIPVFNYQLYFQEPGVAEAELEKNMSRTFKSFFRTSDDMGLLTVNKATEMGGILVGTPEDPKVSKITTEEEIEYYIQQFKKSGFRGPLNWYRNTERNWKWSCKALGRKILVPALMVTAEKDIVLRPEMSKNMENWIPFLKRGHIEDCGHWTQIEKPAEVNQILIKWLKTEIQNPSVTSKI
From the text: as §1, §2

[3] = target: sEH activity from liver cytosol of Sheep (Ovis aries, UniProt A0ACI6PZ20); experiment: as above; format: biochemical
Chain of sEH activity from liver cytosol of Sheep (A0ACI6PZ20 entry or part of it): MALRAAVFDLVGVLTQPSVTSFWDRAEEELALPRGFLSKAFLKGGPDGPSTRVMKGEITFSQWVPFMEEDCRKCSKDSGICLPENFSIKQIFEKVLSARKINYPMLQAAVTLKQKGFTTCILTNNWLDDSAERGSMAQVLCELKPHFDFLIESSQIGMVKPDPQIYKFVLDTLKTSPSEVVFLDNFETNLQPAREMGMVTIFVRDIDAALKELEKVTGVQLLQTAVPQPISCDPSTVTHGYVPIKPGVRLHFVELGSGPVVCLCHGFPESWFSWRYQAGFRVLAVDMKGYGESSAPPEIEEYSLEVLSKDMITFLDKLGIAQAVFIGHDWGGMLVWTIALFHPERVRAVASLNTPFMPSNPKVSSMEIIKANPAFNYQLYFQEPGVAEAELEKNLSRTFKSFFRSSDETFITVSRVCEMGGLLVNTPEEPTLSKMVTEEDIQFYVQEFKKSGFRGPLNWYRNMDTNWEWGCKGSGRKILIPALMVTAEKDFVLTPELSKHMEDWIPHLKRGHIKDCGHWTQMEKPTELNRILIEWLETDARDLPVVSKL
From the text: as §1, §2

Microsomal stability [4] = format: in vitro ADME, horse; settings: for Stability (% without microsomes) Horse liver microsomes NADPH + / Stability (% without microsomes) Horse liver microsomes NADPH –: 1 μM inhibitor, microsomes 1 mg/mL, 37°C, 30 min, compound remaining, average ± SD (n = 3); for Stability (% without microsomes) Horse liver microsomes NADPH +: with NADPH; for metabolism in horse liver microsomes (in words): in the presence of NADPH
Protocol: (§3) The stability of the sEH inhibitors was determined using liver microsomes as described ([24]). […] After 30 min at 37°C, the reaction was stopped by the addition of one volume of methanol containing CUDA (200 nM) as surrogate. The amount of remaining inhibitor was determined by LC/MS/MS. The stability is reported as a percentage of compound remaining after 30 min in these conditions.
(§4) Mass spectrometry analyses were performed using a Waters Quattro Premier triple quadrupole tandem mass spectrometer (Micromass, Manchester, UK) interfaced to an electrospray ionization (ESI) source. The MS was coupled with a Waters Acquity UPLC (Waters, Milford, MA, USA). A Varian Pursuit5 C18 RP HPLC column (150 mm × 2.1 mm, particle size 5 μm) was used to separate the analytes. […] The source and the desolvation temperatures were set at 120 and 300°C, respectively. […] Dwell time was set to 0.1 s.

Microsomal stability [5] = format: in vitro ADME, cat; settings: for Stability (% without microsomes) Cat liver microsomes NADPH + / Stability (% without microsomes) Cat liver microsomes NADPH –: 1 μM inhibitor, microsomes 1 mg/mL, 37°C, 30 min, compound remaining, average ± SD (n = 3); for Stability (% without microsomes) Cat liver microsomes NADPH +: with NADPH; for metabolism in cat liver microsomes (in words): in the presence of NADPH
Protocol: as §3, §4

[6] = liver cytosol, [3H]t-DPPO ([S]final = 5 μM) as substrate, read-out: IC50 (nM) Pig
[7] = liver cytosol, [3H]t-DPPO ([S]final = 5 μM) as substrate, read-out: IC50 (nM) Rat
[8] = [3H]t-DPPO ([S]final = 5 μM) as substrate, read-out: IC50 (nM) Sheep

SMILES	IC50 [1, 6] [nM]	IC50 [2, 7] [nM]	IC50 [3, 8] [nM]	Stability (% without microsomes) Horse liver microsomes NADPH + (Microsomal stability [4]) [%]	Stability (% without microsomes) Horse liver microsomes NADPH – (Microsomal stability [4]) [%]	stability in horse liver microsomes (in words) (Microsomal stability [4]; in the absence of NADPH)	metabolism in horse liver microsomes (in words) (Microsomal stability [4])	Stability (% without microsomes) Cat liver microsomes NADPH + (Microsomal stability [5]) [%]	Stability (% without microsomes) Cat liver microsomes NADPH – (Microsomal stability [5]) [%]	stability in cat liver microsomes (in words) (Microsomal stability [5]; in the absence of NADPH)	metabolism in cat liver microsomes (in words) (Microsomal stability [5])	IC50 [1] [nM]	IC50 [2] [nM]	IC50 ([3]; read-out: IC50 (nM) Sheep, [3H]t-DPPO ([S]final = 5 μM) as substrate) [nM]
N#CNC(=O)CCCCCCCCCCCNC(=O)NC12CC3CC(CC(C3)C1)C2 [1,845]	81	12	7	28 ± 9	67 ± 3	not stable	further metabolized	9 ± 2	5 ± 1	not stable				
O=C(NCCCCOc1ccc(F)cc1)NC12CC3CC(CC(C3)C1)C2 [1,707]	6	7	2	1.6 ± 0.2			metabolized rapidly	5 ± 1	101 ± 14		metabolized rapidly			
O=C(Nc1ccc(OC(F)(F)F)cc1)N[C@H]1CC[C@H](Oc2ccc(C(=O)O)cc2)CC1 [1,728, trans-4-{4-[3-(4-trifluoromethoxy-phenyl)-ureido]-cyclohexyloxy}-benzoic acid]				89 ± 3	108 ± 10		most stable	101 ± 3	103 ± 8		most stable	9	6	6
